From US7994209B2, “3-phenoxymethylpyrrolidine compounds” (Theravance, Inc., priority 2009, dated 2011) come the findings set out here.

The target of test [1] is T1, hSERT (Homo sapiens, UniProt P31645). The test can be described thus: hSERT membrane radioligand binding assay (3H-citalopram), Assay 1. To be noted: SERT pKi, hSERT HEK-293 membranes, 1.0 nM 3H-citalopram; values given as lower bounds.
Test [2] addresses T2, hNET (Homo sapiens, UniProt P23975). The test is described as follows: hNET neurotransmitter uptake assay (3H-NE), Assay 2. The arrangement: expressed in transfected cells; host or cells: HEK-293. It is filed as cell-based. The settings on record: norepinephrine reuptake inhibition, 3H-NE uptake, HEK-293 hNET cells (values without asterisk); read-out: NET pIC50 (converted). As for the experimental part: (§1) Cells were harvested by centrifugation at 1100 rpm for 5 minutes, washed once by resuspension in PBS, then centrifuged. The supernatant was discarded and the cell pellet resuspended, by gentle trituration, in room temperature Krebs-Ringer bicarbonate buffer containing HEPES (10 mM), CaCl2 (2.2 mM), ascorbic acid (200 μM) and pargyline (200 μM), pH 7.4.
(§2) Test compounds were incubated for 30 minutes at 37° C. with the respective cells, prior to addition of radiolabeled neurotransmitter, ^3H-5-HT (20 nM final concentration), ^3H-NE (50 nM final concentration) or ^3H-DA (100 nM final concentration).

Test [3] deals with T1, hSERT. The test is described as follows: hSERT neurotransmitter uptake assay (3H-5-HT), Assay 2. It is filed as cell-based. To be noted: serotonin reuptake inhibition, 3H-5-HT uptake, HEK-293 hSERT cells (values without asterisk); read-out: SERT pIC50 (converted). Further details: expressed in transfected cells; host or cells: HEK-293. As to the method: as §1, §2
Test [4] addresses T2, hNET. The test can be described thus: hNET membrane radioligand binding assay (3H-nisoxetine), Assay 1.

T2 sequence (P23975 whole entry): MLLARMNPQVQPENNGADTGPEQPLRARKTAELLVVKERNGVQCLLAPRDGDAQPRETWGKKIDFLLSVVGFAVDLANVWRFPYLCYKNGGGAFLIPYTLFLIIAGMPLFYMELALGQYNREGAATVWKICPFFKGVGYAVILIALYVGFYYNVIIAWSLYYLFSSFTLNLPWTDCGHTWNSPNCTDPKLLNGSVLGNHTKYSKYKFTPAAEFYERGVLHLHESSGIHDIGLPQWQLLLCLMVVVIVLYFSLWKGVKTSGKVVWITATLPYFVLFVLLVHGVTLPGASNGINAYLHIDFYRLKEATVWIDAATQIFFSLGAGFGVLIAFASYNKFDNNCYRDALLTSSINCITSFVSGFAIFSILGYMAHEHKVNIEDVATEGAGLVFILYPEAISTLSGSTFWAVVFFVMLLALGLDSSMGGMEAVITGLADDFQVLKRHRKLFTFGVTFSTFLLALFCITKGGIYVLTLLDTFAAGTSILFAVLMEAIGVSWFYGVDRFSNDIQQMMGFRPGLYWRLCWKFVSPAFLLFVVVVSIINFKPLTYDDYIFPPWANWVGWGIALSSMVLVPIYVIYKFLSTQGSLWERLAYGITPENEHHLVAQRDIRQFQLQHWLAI
T1 sequence (P31645 whole entry): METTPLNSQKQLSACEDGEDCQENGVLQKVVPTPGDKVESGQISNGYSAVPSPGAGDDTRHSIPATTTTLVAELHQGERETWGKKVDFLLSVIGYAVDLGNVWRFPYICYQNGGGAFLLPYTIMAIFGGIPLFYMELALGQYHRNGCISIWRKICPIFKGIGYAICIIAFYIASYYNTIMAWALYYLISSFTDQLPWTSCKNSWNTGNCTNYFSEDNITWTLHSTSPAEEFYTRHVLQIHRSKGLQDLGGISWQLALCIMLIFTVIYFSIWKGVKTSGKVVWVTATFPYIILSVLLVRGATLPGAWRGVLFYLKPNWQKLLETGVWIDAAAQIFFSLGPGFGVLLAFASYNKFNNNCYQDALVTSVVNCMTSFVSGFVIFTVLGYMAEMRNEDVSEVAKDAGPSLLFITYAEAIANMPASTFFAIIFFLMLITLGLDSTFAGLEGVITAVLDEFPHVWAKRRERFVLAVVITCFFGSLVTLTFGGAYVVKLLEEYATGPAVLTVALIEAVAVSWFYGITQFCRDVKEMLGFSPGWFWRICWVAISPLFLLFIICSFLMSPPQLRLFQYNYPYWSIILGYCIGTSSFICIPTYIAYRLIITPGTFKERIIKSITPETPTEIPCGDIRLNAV

As usually defined, the Ki is the equilibrium dissociation constant of an inhibitor or competing ligand from its target. A higher Ki goes with lower affinity. `CCc1cc(F)ccc1O[C@@H](CC)[C@H]1CCNC1` [Example 2-66, (S)-3-[(S)-1-(2-Ethyl-4-fluorophenoxy)propyl]pyrrolidine]: the Ki at hSERT [1] and on hNET [4] was no more than 10 nM each time. Further, the IC50 on hNET [2] and at hSERT [3] was no more than 10 nM in each case.
As for `CC[C@H](Oc1cccc(Cl)c1Cl)[C@H]1CCNC1` [Example 2-28, (S)-3-[(S)-1-(2,3-Dichlorophenoxy)propyl]pyrrolidine], the Ki on hSERT [1] and at hNET [4] was no more than 10 nM throughout. Besides, the IC50 at hNET [2] and at hSERT [3] was no more than 10 nM each time.
In the case of `CC[C@@H](Oc1cccc(Cl)c1Cl)[C@@H]1CCNC1` [Example 2-29, (R)-3-[(R)-1-(2,3-Dichlorophenoxy)propyl]pyrrolidine], the Ki at hSERT [1] and at hNET [4] was no more than 10 nM throughout. Also, the IC50 at hNET [2] and on hSERT [3] was no more than 10 nM in each case.
On to `CC(C)C[C@H](Oc1cccc(Cl)c1F)[C@H]1CCNC1` [Example 10-19, (S)-3-[(S)-1-(3-Chloro-2-fluorophenoxy)-3-methylbutyl]pyrrolidine], for which the Ki on hSERT [1] and at hNET [4] was no more than 10 nM in each case. For the same compound, the IC50 on hNET [2] and at hSERT [3] was no more than 10 nM each time.
On to `CC(C)C(Oc1ccccc1Cl)C1CCNC1` (centres unmarked) [Example 6-11, 3-[1-(2-Chlorophenoxy)-2-methylpropyl]pyrrolidine], for which the Ki at hSERT [1] and at hNET [4] was no more than 10 nM in each case. Further, the IC50 was no more than 10 nM on hNET [2] and no more than 100 nM at hSERT [3].
As for `CCC[C@@H](Oc1cccc(Cl)c1Cl)[C@H]1CCNC1` [Example 4-23, (S)-3-[(R)-1-(2,3-Dichlorophenoxy)butyl]pyrrolidine], the Ki on hSERT [1] and at hNET [4] was no more than 10 nM throughout. The IC50 at hNET [2] and on hSERT [3] was no more than 10 nM in each case.
As for `CCC[C@@H](Oc1cccc(C)c1C)[C@@H]1CCNC1` [Example 4-63, (R)-3-[(R)-1-(2,3-Dimethylphenoxy)butyl]pyrrolidine], the Ki at hSERT [1] and at hNET [4] was no more than 10 nM throughout. For the same compound, the IC50 at hNET [2] and at hSERT [3] was no more than 10 nM in each case.
As for `C#CC(Oc1cccc(Cl)c1Cl)[C@H]1CCNC1` (stereo partly drawn) [Example 27-1, (S)-3-[1-(2,3-Dichlorophenoxy)prop-2-ynyl]pyrrolidine], the Ki on hSERT [1] and at hNET [4] was no more than 10 nM each time. In addition, the values for the IC50 on hNET [2] and at hSERT [3] were no more than 10 nM and no more than 100 nM, respectively.
For `CC[C@H](Oc1ccc(Cl)cc1F)[C@H]1CCNC1` [Example 2-47, (S)-3-[(S)-1-(4-Chloro-2-fluorophenoxy)propyl]pyrrolidine], the Ki on hSERT [1] and on hNET [4] was no more than 10 nM in each case. In addition, the IC50 was no more than 10 nM at hNET [2] and no more than 100 nM at hSERT [3].
Regarding `CC[C@H](Oc1ccc(Cl)c(Cl)c1)[C@H]1CCNC1` [Example 2-7, (S)-3-[(S)-1-(3,4-Dichlorophenoxy)propyl]pyrrolidine], the Ki on hSERT [1] and on hNET [4] was no more than 10 nM throughout. The IC50 at hNET [2] and on hSERT [3] was no more than 10 nM throughout.
In the case of `CC[C@@H](Oc1c(F)ccc(F)c1Cl)[C@H]1CCNC1` [Example 2-41, (S)-3-[(R)-1-(2-Chloro-3,6-difluorophenoxy)propyl]pyrrolidine], the Ki on hSERT [1] and on hNET [4] was no more than 10 nM each time. The IC50 was no more than 10 nM at hNET [2] and no more than 100 nM at hSERT [3].
In the case of `CC(C)C[C@H](Oc1c(Cl)ccc(Cl)c1F)[C@H]1CCNC1` [Example 10-69, (S)-3-[(S)-1-(3,6-Dichloro-2-fluorophenoxy)-3-methylbutyl]pyrrolidine], the Ki at hSERT [1] and on hNET [4] was no more than 10 nM each time. The IC50 at hNET [2] and at hSERT [3] was no more than 10 nM each time.
For `CC(C)C[C@H](Oc1ccccc1F)[C@H]1CCNC1` [Example 10-1, (S)-3-[(S)-1-(2-Fluorophenoxy)-3-methylbutyl]pyrrolidine], the Ki at hSERT [1] and at hNET [4] was no more than 10 nM in each case. The IC50 is no more than 10 nM at hNET [2] and no more than 100 nM at hSERT [3].
With `CCC[C@@H](Oc1cccc(Cl)c1C)[C@H]1CCNC1` [Example 4-55, (S)-3-[(R)-1-(3-Chloro-2-methylphenoxy)butyl]pyrrolidine], the Ki on hSERT [1] and on hNET [4] was no more than 10 nM in each case. The IC50 at hNET [2] is no more than 10 nM; on hSERT [3] it was no more than 100 nM.
Turning to `COc1ccccc1O[C@@H](CC(C)C)[C@H]1CCNC1` [Example 10-4, (S)-3-[(S)-1-(2-Methoxyphenoxy)-3-methylbutyl]pyrrolidine], the Ki on hSERT [1] and at hNET [4] was no more than 10 nM throughout. Further, the IC50 at hNET [2] is no more than 10 nM; at hSERT [3] it was no more than 100 nM.
Take `CC(C)CC(Oc1c(F)cc(Cl)cc1F)C1CCNC1` (centres unmarked) [Example 10-66, 3-[1-(4-Chloro-2,6-difluorophenoxy)-3-methylbutyl]pyrrolidine]: the Ki on hSERT [1] and on hNET [4] was no more than 10 nM in each case. Also, the IC50 on hNET [2] and at hSERT [3] was no more than 10 nM throughout.
`CCC[C@@H](Oc1cccc(Cl)c1Cl)[C@@H]1CCNC1` [Example 4-25, (R)-3-[(R)-1-(2,3-Dichlorophenoxy)butyl]pyrrolidine]: the Ki at hSERT [1] and on hNET [4] was no more than 10 nM each time. Besides, the IC50 on hNET [2] and on hSERT [3] was no more than 10 nM in each case.
Regarding `C=CC[C@H](Oc1ccc(Cl)cc1)[C@H]1CCNC1` [Example 25-1, (S)-3-[(S)-1-(4-Chlorophenoxy)but-3-enyl]pyrrolidine], the Ki on hSERT [1] and at hNET [4] was no more than 10 nM throughout. Moreover, the IC50 on hNET [2] and on hSERT [3] was no more than 10 nM in each case.
For the compound `CCCC[C@@H](Oc1ccc(F)cc1)[C@H]1CCNC1` [Example 8-3, (S)-3-[(R)-1-(4-Fluorophenoxy)pentyl]pyrrolidine], the Ki at hSERT [1] and at hNET [4] was no more than 10 nM each time. For the same compound, the IC50 at hNET [2] and at hSERT [3] was no more than 100 nM each time.
Consider `CC(C)[C@H](Oc1ccc(Cl)c(F)c1)[C@H]1CCNC1` [Example 6-56, (S)-3-[(S)-1-(4-Chloro-3-fluorophenoxy)-2-methylpropyl]pyrrolidine], for which the Ki at hSERT [1] and on hNET [4] was no more than 10 nM in each case. The IC50 on hNET [2] and at hSERT [3] was no more than 10 nM each time.
On to `CC(C)[C@H](Oc1cccc(Cl)c1Cl)[C@H]1CCNC1` [Example 6-12, (S)-3-[(S)-1-(2,3-Dichlorophenoxy)-2-methylpropyl]pyrrolidine], for which the Ki on hSERT [1] and at hNET [4] was no more than 10 nM in each case. Moreover, the IC50 at hNET [2] and at hSERT [3] was no more than 10 nM throughout.
For `Clc1cccc(Cl)c1O[C@@H](C1CCCCC1)[C@H]1CCNC1` [Example 19, (S)-3-[(S)-Cyclohexyl-(2,6-dichlorophenoxy)methyl]pyrrolidine], the Ki at hSERT [1] and at hNET [4] was no more than 10 nM throughout. Also, the IC50 at hNET [2] was no more than 10 nM; at hSERT [3], no more than 100 nM.
In the case of `COc1ccc(F)c(O[C@H](C2CC2)[C@H]2CCNC2)c1Cl` [Example 16-65, (S)-3-[(R)-(2-Chloro-6-fluoro-3-methoxyphenoxy)cyclopropylmethyl]pyrrolidine], the Ki at hSERT [1] and on hNET [4] was no more than 10 nM throughout. Moreover, the IC50 at hNET [2] and at hSERT [3] was no more than 10 nM throughout.
